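All cell lines were grown in 96-well plates and treated with compound for 48 hours. Here, GI50 denotes the concentration required for 50% inhibition of growth. TGI: total growth inhibition.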
Assays:
Assay in all cases: NCI anticancer screen, dose series, 48 h
OVCAR-8 ovarian = tested on: OVCAR-8 ovarian
CCRF-CEM leukemia = tested on: CCRF-CEM leukemia
SF-268 CNS = tested on: SF-268 CNS
SNB-19 CNS = tested on: SNB-19 CNS
NCI-H226 lung = tested on: NCI-H226 lung
SW-620 colon = tested on: SW-620 colon
MOLT-4 leukemia = tested on: MOLT-4 leukemia
NCI-H460 lung = tested on: NCI-H460 lung
786-0 renal = tested on: 786-0 renal
MALME-3M melanoma = tested on: MALME-3M melanoma
TK-10 renal = tested on: TK-10 renal
OVCAR-5 ovarian = tested on: OVCAR-5 ovarian
EKVX NSCLC = tested on: EKVX NSCLC
T-47D breast = tested on: T-47D breast
NCI-H522 lung = tested on: NCI-H522 lung
SF-295 CNS = tested on: SF-295 CNS
SK-MEL-28 melanoma = tested on: SK-MEL-28 melanoma
OVCAR-4 ovarian = tested on: OVCAR-4 ovarian
ACHN renal = tested on: ACHN renal
HT29 colon = tested on: HT29 colon
HS 578T breast = tested on: HS 578T breast
A498 renal = tested on: A498 renal
BT-549 breast = tested on: BT-549 breast
K-562 leukemia = tested on: K-562 leukemia
LOX IMVI melanoma = tested on: LOX IMVI melanoma
UACC-62 melanoma = tested on: UACC-62 melanoma
M14 melanoma = tested on: M14 melanoma
RXF 393 renal = tested on: RXF 393 renal
CAKI-1 renal = tested on: CAKI-1 renal
NCI/ADR-RES ovarian = tested on: NCI/ADR-RES ovarian
A549 NSCLC = tested on: A549 NSCLC
UACC-257 melanoma = tested on: UACC-257 melanoma
HCC-2998 colon = tested on: HCC-2998 colon
HL-60(TB) leukemia = tested on: HL-60(TB) leukemia
IGROV1 ovarian = tested on: IGROV1 ovarian
U251 CNS = tested on: U251 CNS
PC-3 prostate = tested on: PC-3 prostate
SN12C renal = tested on: SN12C renal
HCT-116 colon = tested on: HCT-116 colon
SK-MEL-5 melanoma = tested on: SK-MEL-5 melanoma
HOP-92 NSCLC = tested on: HOP-92 NSCLC
SR leukemia = tested on: SR leukemia
DU-145 prostate = tested on: DU-145 prostate
RPMI-8226 leukemia = tested on: RPMI-8226 leukemia
SK-OV-3 ovarian = tested on: SK-OV-3 ovarian
HCT-15 colon = tested on: HCT-15 colon
OVCAR-3 ovarian = tested on: OVCAR-3 ovarian
HOP-62 NSCLC = tested on: HOP-62 NSCLC
NCI-H23 lung = tested on: NCI-H23 lung
SF-539 CNS = tested on: SF-539 CNS
COLO 205 colon = tested on: COLO 205 colon
MDA-MB-468 breast = tested on: MDA-MB-468 breast
MCF7 breast = tested on: MCF7 breast
KM12 colon = tested on: KM12 colon
MDA-MB-435 = tested on: MDA-MB-435

c1n[nH]cc1-c1nc2ccc3[nH]ncc3c2c2c1CC1(CCOCC1)CC2
GI50 (OVCAR-8 ovarian): 13.3 µM
TGI (OVCAR-8 ovarian): 32.6 µM
GI50 (CCRF-CEM leukemia): 22.1 µM
TGI (CCRF-CEM leukemia): 80.9 µM
GI50 (SF-268 CNS): 16.6 µM
TGI (SF-268 CNS): 41.2 µM
GI50 (SNB-19 CNS): 19.3 µM
TGI (SNB-19 CNS): 71.2 µM
GI50 (NCI-H226 lung): 13.9 µM
TGI (NCI-H226 lung): 39.2 µM
GI50 (SW-620 colon): 5.05 µM
TGI (SW-620 colon): > 100 µM
GI50 (MOLT-4 leukemia): 13.4 µM
TGI (MOLT-4 leukemia): 42.7 µM
GI50 (NCI-H460 lung): 10.1 µM
TGI (NCI-H460 lung): 26.4 µM
GI50 (786-0 renal): 14.9 µM
TGI (786-0 renal): 43.1 µM
GI50 (MALME-3M melanoma): 14.1 µM
TGI (MALME-3M melanoma): 27.9 µM
GI50 (TK-10 renal): 8.2 µM
TGI (TK-10 renal): > 100 µM
GI50 (OVCAR-5 ovarian): 27.7 µM
TGI (OVCAR-5 ovarian): 92.3 µM
GI50 (EKVX NSCLC): 19.2 µM
TGI (EKVX NSCLC): 54.4 µM
GI50 (T-47D breast): 13 µM
TGI (T-47D breast): 55.8 µM
GI50 (NCI-H522 lung): 4.84 µM
TGI (NCI-H522 lung): 21.2 µM
GI50 (SF-295 CNS): 24.9 µM
TGI (SF-295 CNS): 71.1 µM
GI50 (SK-MEL-28 melanoma): 12.1 µM
TGI (SK-MEL-28 melanoma): 25.6 µM
GI50 (OVCAR-4 ovarian): 23.4 µM
TGI (OVCAR-4 ovarian): 89.2 µM
GI50 (ACHN renal): 7.72 µM
TGI (ACHN renal): > 100 µM
GI50 (HT29 colon): 12.5 µM
TGI (HT29 colon): > 100 µM
GI50 (HS 578T breast): 7.74 µM
TGI (HS 578T breast): 37.5 µM
GI50 (A498 renal): 6.66 µM
TGI (A498 renal): 22.4 µM
GI50 (BT-549 breast): 5.05 µM
TGI (BT-549 breast): 18.9 µM
GI50 (K-562 leukemia): 16.9 µM
TGI (K-562 leukemia): > 100 µM
GI50 (LOX IMVI melanoma): 8.51 µM
TGI (LOX IMVI melanoma): 21.5 µM
GI50 (UACC-62 melanoma): 4.37 µM
TGI (UACC-62 melanoma): 15.8 µM
GI50 (M14 melanoma): 6.24 µM
TGI (M14 melanoma): 20.9 µM
GI50 (RXF 393 renal): 3.55 µM
TGI (RXF 393 renal): 16.1 µM
GI50 (CAKI-1 renal): 17.3 µM
TGI (CAKI-1 renal): 38.5 µM
GI50 (NCI/ADR-RES ovarian): 58.3 µM
TGI (NCI/ADR-RES ovarian): > 100 µM
GI50 (A549 NSCLC): 22.8 µM
TGI (A549 NSCLC): > 100 µM
GI50 (UACC-257 melanoma): 14.7 µM
TGI (UACC-257 melanoma): 36.5 µM
GI50 (HCC-2998 colon): 12.1 µM
TGI (HCC-2998 colon): 32 µM
GI50 (HL-60(TB) leukemia): 8.38 µM
TGI (HL-60(TB) leukemia): 28.5 µM
GI50 (IGROV1 ovarian): 19.8 µM
TGI (IGROV1 ovarian): 69.6 µM
GI50 (U251 CNS): 11.4 µM
TGI (U251 CNS): > 100 µM
GI50 (PC-3 prostate): 16.7 µM
TGI (PC-3 prostate): > 100 µM
GI50 (SN12C renal): 13.3 µM
TGI (SN12C renal): 44.3 µM
GI50 (HCT-116 colon): 4.62 µM
TGI (HCT-116 colon): > 100 µM
GI50 (SK-MEL-5 melanoma): 14.8 µM
TGI (SK-MEL-5 melanoma): 28.7 µM
GI50 (HOP-92 NSCLC): 13.4 µM
TGI (HOP-92 NSCLC): 64.1 µM
GI50 (SR leukemia): 3.33 µM
TGI (SR leukemia): 15.2 µM
GI50 (DU-145 prostate): 17.9 µM
TGI (DU-145 prostate): > 100 µM
GI50 (RPMI-8226 leukemia): 11.1 µM
TGI (RPMI-8226 leukemia): 42.7 µM
GI50 (SK-OV-3 ovarian): 4.09 µM
TGI (SK-OV-3 ovarian): 60.2 µM
GI50 (HCT-15 colon): 19.8 µM
TGI (HCT-15 colon): > 100 µM
GI50 (OVCAR-3 ovarian): 16.8 µM
TGI (OVCAR-3 ovarian): 65.3 µM
GI50 (HOP-62 NSCLC): 15.4 µM
TGI (HOP-62 NSCLC): 43.3 µM
GI50 (NCI-H23 lung): 13.8 µM
TGI (NCI-H23 lung): 28.8 µM
GI50 (SF-539 CNS): 13.5 µM
TGI (SF-539 CNS): 27.3 µM
GI50 (COLO 205 colon): 5.62 µM
TGI (COLO 205 colon): 22.2 µM
GI50 (MDA-MB-468 breast): 10.7 µM
TGI (MDA-MB-468 breast): 23.2 µM
GI50 (MCF7 breast): 13 µM
TGI (MCF7 breast): 40.9 µM
GI50 (KM12 colon): 19.2 µM
TGI (KM12 colon): 47.8 µM
GI50 (MDA-MB-435): 11.6 µM
TGI (MDA-MB-435): 25.4 µM
